ChEMBL document CHEMBL1201862, “PubChem BioAssay data set” (2004)
Activity calls are given as the source filed them.

What was measured:
[1] = biological target: Beta-2 adrenergic receptor (Homo sapiens, UniProt P07550); test: beta2AR agonists driving receptor internalization, dose response, cell-based, FAP fluorogen, flow cytometry, cherry pick 1 (AID 588763); format: functional
[2] = biological target: Type-1 angiotensin II receptor (Homo sapiens, UniProt P30556); test: AT1 receptor antagonists, dose response, selectivity assay for APJ receptor antagonist project, cell-based, uHTS hits (AID 463214); format: functional;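 note: antagonist potency against angiotensin II stimulated AT1 response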
[3] = inhibitors of intracellular T. cruzi replication, confirmation, NIH3T3 host cells, beta-gal luminescence (AID 2044); format: functional, cell-based;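 note: intracellular parasites grown in NIH/3T3 mouse fibroblasts as host cells; luminescent beta-galactosidase reporter signal from transgenic T. cruzi replicating inside host cells; inhibitors lower the luminescence signal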
[4] = biological target: Beta-galactosidase (Escherichia coli, UniProt Q8VNN2); test: PubChem AID 485352; format: functional
[5] = biological target: T1, Leucine aminopeptidase (Plasmodium falciparum 3D7, UniProt Q8IL11); test: P. falciparum M17LAP inhibitors, primary screen, biochemical, fluorogenic H-Leu-NHMec substrate, 1536-well (AID 1619); format: functional
T1 sequence (Q8IL11 whole entry): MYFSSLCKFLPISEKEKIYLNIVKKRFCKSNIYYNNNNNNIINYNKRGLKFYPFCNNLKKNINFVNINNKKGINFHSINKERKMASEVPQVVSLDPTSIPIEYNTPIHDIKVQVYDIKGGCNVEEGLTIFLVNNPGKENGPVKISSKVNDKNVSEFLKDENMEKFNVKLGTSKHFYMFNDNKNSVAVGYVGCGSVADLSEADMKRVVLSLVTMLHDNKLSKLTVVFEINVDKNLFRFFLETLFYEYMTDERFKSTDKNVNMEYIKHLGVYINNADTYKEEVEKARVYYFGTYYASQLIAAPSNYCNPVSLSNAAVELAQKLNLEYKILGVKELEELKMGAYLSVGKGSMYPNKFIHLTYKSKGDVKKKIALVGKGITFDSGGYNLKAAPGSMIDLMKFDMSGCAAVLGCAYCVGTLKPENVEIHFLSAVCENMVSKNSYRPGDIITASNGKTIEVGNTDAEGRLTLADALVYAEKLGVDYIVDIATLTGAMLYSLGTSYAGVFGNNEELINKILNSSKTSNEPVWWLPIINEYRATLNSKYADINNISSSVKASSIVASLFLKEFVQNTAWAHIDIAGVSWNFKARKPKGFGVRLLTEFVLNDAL

[6] = biological target: T2, Short transient receptor potential channel 4 (Mus musculus, UniProt Q9QUQ5); test: mouse TRPC4 channel activators, dose response, cell-based, HEK293 TRPC4/mu-opioid, Fluo-4 calcium (AID 434937); format: functional
T2 sequence (Q9QUQ5 whole entry): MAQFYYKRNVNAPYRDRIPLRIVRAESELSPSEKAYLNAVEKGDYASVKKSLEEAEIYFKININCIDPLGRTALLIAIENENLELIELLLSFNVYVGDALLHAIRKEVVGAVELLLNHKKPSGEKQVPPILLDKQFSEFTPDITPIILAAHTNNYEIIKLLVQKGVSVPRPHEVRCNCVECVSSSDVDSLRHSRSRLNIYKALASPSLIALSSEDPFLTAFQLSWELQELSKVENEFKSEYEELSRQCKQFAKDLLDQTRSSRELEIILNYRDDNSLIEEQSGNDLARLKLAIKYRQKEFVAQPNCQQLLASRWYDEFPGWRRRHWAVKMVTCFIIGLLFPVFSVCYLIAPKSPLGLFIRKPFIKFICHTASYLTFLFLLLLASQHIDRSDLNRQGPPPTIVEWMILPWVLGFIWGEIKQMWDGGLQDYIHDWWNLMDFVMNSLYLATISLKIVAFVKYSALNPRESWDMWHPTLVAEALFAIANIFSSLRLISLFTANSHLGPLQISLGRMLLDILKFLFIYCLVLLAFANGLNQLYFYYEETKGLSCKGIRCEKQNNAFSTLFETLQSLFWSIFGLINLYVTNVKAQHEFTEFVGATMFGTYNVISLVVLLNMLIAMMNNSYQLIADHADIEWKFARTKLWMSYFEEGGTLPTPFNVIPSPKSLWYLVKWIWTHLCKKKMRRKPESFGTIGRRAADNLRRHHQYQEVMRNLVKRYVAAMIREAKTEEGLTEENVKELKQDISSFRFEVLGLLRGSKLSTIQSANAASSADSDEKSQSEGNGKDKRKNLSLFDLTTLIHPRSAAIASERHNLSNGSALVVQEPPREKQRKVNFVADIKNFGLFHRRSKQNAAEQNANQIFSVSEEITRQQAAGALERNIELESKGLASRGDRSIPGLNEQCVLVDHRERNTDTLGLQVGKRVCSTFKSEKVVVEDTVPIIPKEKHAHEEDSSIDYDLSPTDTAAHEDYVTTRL

[7] = cytotoxicity toward NIH3T3 fibroblasts, dose response, counter-screen, cell-based, ATP luminescence, mouse fibroblasts (AID 2010); format: functional;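 note: cells exposed to compound for about 90 hours before reading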
[8] = tested on: INS1; test: beta cell apoptosis inhibitors, cytokine rescue, dose response, luminescence, retest (AID 449756); format: functional, cell-based; conditions: Rattus norvegicus;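 note: cell death triggered by IL-1 beta plus TNF-alpha plus IFN-gamma mixture; protective hits raise ATP signal compared with cytokine alone wells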
[9] = biological target: T3, Microphthalmia-associated transcription factor (Homo sapiens, UniProt O75030); test: TRPM1 promoter luciferase signal decrease, dose response, MITF inhibitor project, cell-based, SK-MEL-5, cherry-picked, set 3 (AID 493073); format: functional
T3 sequence (O75030 whole entry): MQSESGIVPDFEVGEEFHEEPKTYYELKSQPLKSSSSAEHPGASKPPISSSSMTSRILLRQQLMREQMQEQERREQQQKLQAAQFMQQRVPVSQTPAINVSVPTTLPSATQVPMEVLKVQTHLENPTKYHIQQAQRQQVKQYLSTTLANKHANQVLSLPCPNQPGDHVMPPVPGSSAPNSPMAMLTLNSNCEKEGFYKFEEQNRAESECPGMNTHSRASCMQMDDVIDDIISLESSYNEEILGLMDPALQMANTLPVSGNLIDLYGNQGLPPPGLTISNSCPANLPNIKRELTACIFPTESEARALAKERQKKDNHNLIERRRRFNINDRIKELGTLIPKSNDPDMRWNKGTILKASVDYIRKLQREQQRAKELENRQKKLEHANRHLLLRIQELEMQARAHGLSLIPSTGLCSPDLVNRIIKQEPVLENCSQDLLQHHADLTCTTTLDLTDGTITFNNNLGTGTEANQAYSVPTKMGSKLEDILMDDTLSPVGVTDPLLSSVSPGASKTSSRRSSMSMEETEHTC

[10] = inhibitors of firefly luciferase expression or activity, dose response, H4 neuroglioma cells, luminescence (AID 1990); format: functional, cell-based
[11] = Luminescence Cell-Based Dose Response HTS to Identify Inhibitors of 5'UTR Stem-Loop Driven Prion Protein mRNA Translation in H4 Neuroglioblastoma Cells. [Related pubchem assays: 1827 (Project Summary), 1813 (Primary HTS)]; format: functional
[12] = biological target: Apoptotic protease-activating factor 1 (Homo sapiens, UniProt O14727); format: functional
[13] = inhibitors of SNCA 5'UTR-driven reporter translation, confirmation, H4 neuroglioma cells, luminescence (AID 1988); format: functional, cell-based
[14] = tested on: INS1; test: protection from cytokine-driven beta-cell apoptosis, dose response, JC-1 fluorescence, INS-1E, dry powder, set 2 (AID 488867); format: functional, cell-based; conditions: Rattus norvegicus
[15] = inhibitors of cytokine-induced nitrite release, dose response, cell-based, Griess absorbance, INS-1E, dry powder, set 3 (AID 488870); format: functional; conditions: Rattus norvegicus
[16] = tested on: INS1; test: inhibitors of cytokine-induced nitrite release, dose response, cell-based, Griess absorbance, INS-1E, dry powder, set 2 (AID 488868); format: functional; conditions: Rattus norvegicus
[17] = biological target: Paired box protein Pax-8 (Homo sapiens, UniProt Q06710); test: inhibitors of PAX8-driven TPO luciferase reporter, dose response, RMG-I cells, cherry-pick (AID 687027); format: functional, cell-based;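 note: luciferase reporter driven by Pax8 target thyroperoxidase promoter measured by SteadyGlo luminescence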
[18] = tested on: Candida albicans; test: growth inhibition of resistant C. albicans, dose response, CaCi-8 strain, fluconazole, dry powder, set 4 (AID 488950); format: functional, organism-based
[19] = tested on: Candida albicans; test: fluconazole resistance reversal in C. albicans, dose response, CaCi-2 strain, Alamar Blue, dry powder, set 4 (AID 488943); format: functional, organism-based
[20] = tested on: NIH3T3; test: cytotoxicity in NIH-3T3 fibroblasts, dose response, cytotoxicity control for antifungal drug resistance project, cell-based, Alamar Blue, fluconazole, dry powder (AID 488809); format: functional; conditions: Mus musculus
[21] = tested on: Candida albicans; test: Candida albicans growth inhibition, agent alone, dose response, counter-screen for reversing antifungal drug resistance, CaCi-2 strain, no fluconazole, dry powder, set 4 (AID 488932); format: functional, organism-based
[22] = tested on: Candida albicans; test: growth inhibition of resistant C. albicans, dose response, CaCi-8, fluconazole, Alamar Blue, dry powder (AID 488807); format: functional, organism-based
[23] = biological target: Hexokinase-1 (Homo sapiens, UniProt P19367); test: SAR analysis of small molecule inhibitors of hexokinase domain containing I (HKDC1) in the hexokinase 1 selectivity assay. [Related pubchem assays (depositor defined):AID493160, AID493190]; format: functional
[24] = biological target: T4, Hexokinase HKDC1 (Homo sapiens, UniProt Q2TB90); test: SAR analysis of small molecule inhibitors of hexokinase domain containing I (HKDC1). [Related pubchem assays (depositor defined):AID493160, AID493190]; format: functional
T4 sequence (Q2TB90 whole entry): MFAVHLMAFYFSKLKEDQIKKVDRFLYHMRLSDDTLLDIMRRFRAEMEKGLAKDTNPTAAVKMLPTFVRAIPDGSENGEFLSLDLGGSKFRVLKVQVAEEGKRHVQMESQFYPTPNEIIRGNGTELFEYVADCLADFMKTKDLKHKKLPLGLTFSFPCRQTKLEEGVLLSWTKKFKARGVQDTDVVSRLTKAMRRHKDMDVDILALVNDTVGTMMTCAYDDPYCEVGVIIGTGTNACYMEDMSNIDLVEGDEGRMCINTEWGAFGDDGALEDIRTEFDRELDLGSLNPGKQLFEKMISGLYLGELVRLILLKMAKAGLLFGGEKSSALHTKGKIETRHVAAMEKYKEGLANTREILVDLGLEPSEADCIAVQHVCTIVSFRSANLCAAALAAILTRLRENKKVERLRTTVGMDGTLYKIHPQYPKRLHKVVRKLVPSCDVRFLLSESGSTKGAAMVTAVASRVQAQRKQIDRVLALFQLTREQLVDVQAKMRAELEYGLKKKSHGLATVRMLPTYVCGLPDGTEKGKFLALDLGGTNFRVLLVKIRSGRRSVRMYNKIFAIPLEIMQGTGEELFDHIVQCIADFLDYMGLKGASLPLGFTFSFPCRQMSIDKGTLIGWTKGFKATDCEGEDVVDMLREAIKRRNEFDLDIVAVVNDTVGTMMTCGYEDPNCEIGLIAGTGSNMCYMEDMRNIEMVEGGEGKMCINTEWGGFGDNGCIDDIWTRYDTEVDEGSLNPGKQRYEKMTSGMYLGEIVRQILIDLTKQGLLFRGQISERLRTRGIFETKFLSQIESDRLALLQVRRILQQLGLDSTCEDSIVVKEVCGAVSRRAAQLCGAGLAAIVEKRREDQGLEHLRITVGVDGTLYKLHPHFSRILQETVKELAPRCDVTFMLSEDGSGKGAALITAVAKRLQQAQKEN

Hexokinase-1, sequence (P19367 whole entry, the tested form may be a part): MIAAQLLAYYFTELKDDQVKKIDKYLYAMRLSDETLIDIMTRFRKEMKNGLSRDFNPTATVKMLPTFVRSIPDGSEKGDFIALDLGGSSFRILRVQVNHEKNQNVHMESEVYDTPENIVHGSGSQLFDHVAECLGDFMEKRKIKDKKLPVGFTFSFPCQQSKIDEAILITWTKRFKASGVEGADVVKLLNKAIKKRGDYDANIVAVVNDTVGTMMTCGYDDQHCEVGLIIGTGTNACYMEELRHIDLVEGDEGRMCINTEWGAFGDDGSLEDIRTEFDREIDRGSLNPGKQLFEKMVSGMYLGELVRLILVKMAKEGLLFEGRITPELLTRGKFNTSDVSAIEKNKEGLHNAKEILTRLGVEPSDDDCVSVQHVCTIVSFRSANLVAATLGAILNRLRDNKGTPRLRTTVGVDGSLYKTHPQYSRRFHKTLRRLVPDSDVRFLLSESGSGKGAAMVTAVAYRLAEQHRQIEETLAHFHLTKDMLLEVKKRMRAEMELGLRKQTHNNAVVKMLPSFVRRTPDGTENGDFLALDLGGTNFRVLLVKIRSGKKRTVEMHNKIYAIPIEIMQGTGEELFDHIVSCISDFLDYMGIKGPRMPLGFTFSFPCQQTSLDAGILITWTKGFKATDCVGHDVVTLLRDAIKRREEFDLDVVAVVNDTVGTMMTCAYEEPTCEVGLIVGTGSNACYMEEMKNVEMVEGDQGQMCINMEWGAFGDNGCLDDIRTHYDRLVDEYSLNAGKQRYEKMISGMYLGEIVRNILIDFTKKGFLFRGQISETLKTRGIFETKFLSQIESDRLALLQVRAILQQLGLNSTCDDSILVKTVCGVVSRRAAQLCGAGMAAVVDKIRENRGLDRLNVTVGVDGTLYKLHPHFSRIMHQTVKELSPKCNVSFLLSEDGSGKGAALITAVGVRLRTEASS
Type-1 angiotensin II receptor, sequence (P30556 whole entry): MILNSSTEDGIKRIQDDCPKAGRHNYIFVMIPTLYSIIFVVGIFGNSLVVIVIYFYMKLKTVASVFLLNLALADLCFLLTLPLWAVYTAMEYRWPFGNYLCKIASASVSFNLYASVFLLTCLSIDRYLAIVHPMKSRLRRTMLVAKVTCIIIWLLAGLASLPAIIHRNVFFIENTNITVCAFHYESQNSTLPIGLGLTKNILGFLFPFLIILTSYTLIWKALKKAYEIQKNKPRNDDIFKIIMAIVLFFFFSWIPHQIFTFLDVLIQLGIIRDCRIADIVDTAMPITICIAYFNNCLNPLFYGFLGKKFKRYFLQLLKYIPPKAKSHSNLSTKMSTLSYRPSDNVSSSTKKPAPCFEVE
Apoptotic protease-activating factor 1, sequence (O14727 whole entry): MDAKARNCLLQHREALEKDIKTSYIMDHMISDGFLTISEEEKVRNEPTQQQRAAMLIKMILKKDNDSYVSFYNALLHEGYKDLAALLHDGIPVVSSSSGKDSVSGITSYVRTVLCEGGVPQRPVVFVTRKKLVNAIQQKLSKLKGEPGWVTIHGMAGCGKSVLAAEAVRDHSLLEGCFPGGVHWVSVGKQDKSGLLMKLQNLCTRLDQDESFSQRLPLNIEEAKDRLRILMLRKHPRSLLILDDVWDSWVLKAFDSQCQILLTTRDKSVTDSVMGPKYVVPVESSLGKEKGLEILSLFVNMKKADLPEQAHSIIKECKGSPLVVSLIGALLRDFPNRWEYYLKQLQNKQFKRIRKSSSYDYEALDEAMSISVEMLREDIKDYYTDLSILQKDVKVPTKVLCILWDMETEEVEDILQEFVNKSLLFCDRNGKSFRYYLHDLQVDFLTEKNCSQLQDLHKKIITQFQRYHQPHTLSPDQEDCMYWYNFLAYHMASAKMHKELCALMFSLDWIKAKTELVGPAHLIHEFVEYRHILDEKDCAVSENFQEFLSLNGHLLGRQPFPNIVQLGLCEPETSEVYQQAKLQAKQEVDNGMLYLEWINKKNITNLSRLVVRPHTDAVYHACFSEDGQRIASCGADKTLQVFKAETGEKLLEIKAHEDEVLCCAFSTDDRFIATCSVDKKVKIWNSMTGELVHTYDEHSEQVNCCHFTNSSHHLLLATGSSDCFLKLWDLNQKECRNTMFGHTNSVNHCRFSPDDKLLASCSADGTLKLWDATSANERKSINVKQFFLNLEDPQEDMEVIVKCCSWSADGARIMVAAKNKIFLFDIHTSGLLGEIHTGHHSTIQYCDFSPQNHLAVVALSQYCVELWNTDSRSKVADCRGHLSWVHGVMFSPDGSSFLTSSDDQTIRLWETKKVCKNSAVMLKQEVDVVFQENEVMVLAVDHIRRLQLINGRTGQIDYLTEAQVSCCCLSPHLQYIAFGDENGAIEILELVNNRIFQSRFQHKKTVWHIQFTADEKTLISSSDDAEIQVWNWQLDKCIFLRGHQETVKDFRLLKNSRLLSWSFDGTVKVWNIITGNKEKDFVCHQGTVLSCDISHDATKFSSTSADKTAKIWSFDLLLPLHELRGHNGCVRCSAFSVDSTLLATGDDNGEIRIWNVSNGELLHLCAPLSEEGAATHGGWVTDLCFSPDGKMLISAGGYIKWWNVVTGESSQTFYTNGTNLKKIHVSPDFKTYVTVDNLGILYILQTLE
Beta-2 adrenergic receptor, sequence (P07550 whole entry): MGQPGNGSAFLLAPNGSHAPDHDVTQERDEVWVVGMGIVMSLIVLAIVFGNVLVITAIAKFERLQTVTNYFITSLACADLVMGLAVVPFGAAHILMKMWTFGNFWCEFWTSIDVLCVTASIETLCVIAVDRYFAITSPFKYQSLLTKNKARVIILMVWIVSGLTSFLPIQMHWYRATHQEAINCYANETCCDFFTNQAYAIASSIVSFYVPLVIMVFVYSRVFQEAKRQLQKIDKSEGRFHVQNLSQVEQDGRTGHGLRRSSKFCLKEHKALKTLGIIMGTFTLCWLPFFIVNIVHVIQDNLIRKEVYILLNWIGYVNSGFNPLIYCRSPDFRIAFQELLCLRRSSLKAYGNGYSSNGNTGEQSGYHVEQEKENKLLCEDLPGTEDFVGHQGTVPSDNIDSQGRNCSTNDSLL
Beta-galactosidase, sequence (Q8VNN2 whole entry): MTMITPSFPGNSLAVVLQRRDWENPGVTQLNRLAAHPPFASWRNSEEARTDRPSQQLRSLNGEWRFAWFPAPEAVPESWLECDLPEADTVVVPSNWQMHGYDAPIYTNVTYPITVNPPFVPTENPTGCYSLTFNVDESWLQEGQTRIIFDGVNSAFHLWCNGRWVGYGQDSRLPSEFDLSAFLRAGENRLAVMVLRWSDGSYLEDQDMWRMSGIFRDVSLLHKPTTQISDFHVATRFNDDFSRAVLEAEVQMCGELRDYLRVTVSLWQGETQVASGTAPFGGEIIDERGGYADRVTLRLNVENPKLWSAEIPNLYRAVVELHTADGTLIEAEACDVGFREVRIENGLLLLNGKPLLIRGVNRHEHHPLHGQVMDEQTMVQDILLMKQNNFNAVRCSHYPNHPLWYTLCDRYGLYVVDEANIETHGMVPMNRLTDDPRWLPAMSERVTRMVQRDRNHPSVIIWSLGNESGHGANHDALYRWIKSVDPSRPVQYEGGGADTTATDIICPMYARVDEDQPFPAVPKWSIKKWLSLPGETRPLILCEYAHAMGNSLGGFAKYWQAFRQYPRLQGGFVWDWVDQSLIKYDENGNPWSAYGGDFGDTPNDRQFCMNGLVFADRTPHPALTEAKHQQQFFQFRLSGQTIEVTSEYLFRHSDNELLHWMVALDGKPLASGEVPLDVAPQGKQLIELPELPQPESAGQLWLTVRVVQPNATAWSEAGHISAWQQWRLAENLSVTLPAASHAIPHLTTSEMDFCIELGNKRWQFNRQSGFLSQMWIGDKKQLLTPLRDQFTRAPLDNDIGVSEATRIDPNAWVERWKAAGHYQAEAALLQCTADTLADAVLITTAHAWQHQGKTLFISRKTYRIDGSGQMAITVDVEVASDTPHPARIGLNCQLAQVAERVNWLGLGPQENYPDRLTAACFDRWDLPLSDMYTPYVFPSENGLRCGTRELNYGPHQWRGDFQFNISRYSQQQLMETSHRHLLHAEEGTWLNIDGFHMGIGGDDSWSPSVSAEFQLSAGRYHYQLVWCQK
Paired box protein Pax-8, sequence (Q06710 whole entry): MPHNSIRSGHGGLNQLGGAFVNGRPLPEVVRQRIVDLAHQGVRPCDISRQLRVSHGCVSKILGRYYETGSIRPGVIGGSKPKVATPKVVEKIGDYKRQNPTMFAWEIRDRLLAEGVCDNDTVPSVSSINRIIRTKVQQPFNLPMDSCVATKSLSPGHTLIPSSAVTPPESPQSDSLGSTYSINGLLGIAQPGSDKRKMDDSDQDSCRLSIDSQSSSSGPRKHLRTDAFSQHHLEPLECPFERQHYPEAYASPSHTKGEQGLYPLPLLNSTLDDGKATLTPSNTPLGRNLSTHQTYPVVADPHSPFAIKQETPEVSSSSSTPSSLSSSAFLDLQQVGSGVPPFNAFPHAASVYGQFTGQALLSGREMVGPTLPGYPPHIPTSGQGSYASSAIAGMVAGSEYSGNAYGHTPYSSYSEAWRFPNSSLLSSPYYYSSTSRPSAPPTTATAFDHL

Compound: Nc1cccc(C#Cc2ccc3c(=O)c4ccccc4oc3c2)c1
- EC50 [1]: 0.245 µM (active)

Compound: CC(C)(C)c1cc(CCC(=O)NNC(=S)NC(=O)c2ccccc2)cc(C(C)(C)C)c1O
- IC50 [2]: 35.5 µM (not active)
- EC50 [3]: 0.382 µM (active)
- EC50 [4]: > 40 µM (inactive)
- IC50 [5]: 32.2 µM (active)
- EC50 [6]: 3.35 µM (active)
- EC50 [7]: 15.7 µM (active)
- AC50 [8]: 3.99 µM (active)

Compound: CC(=O)Nc1ccc(S(=O)(=O)NC2=C(N3CCN(C)CC3)C(=O)c3ccccc3C2=O)cc1
- AC50 [9]: 3.65 µM (active)
- EC50 [10]: 15.6 µM (active)
- EC50 [11]: > 120 µM (not active)
- IC50 [12]: 29.7 µM (active)
- AC50 [8]: 3.99 µM (active)
- EC50 [13]: 11.1 µM (active)

Compound: Cc1ccc(S(=O)(=O)N(C)C[C@H]2Oc3c(NC(=O)Nc4cccc5ccccc45)cccc3C(=O)N([C@@H](C)CO)C[C@@H]2C)cc1
- AC50 [14]: 38.8 µM (active)
- AC50 [15]: > 195 µM (inactive)
- AC50 [16]: 45.6 µM (active)
- AC50 [17]: 5.94 µM (active)

Compound: O=C(c1csc2ccccc12)N1CCN(c2ccnc3cc(Cl)ccc23)CC1
- AC50 [18]: 1.69 µM (active)
- AC50 [19]: 0.946 µM (active)
- AC50 [20]: 4.47 µM (active)
- AC50 [21]: 106 µM (active)
- AC50 [22]: 2.72 µM (active)

Compound: COc1ccc(/C=C/c2nc3ccccc3c(=O)n2Cc2ccccc2)cc1OC
- IC50 [23]: > 80 µM (inactive)
- IC50 [24]: > 80 µM (inactive)
